These results are taken from the supplement of paper PMC3974653.

Where a name gives a salt, the structure may show the parent alone.

This experiment deals with MTT (mouse pheochromocytoma). As to the kind of experiment: IC50 of cell viability (ATP content). The conditions noted are these: (24 or 48 h). In short, it runs like this: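 Library compounds in DMSO (23 nl by pintool, 8 concentrations, final 0.5 nM to 46 µM) were applied for 24 or 48 hrs to MTT mouse pheochromocytoma cells that had been cultured overnight at 37°C, 5% CO2 in white 1536-well plates. Cell viability was measured by CellTiter-Glo ATP luminescence, read after 15 minutes, with positive-control wells set at 100% and DMSO wells at 0%. A four-parameter logistic fit of the normalised signals yielded the IC50.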
As to `O=C([O-])c1c(Cl)c(Cl)c(Cl)c(Cl)c1-c1c2cc(I)c(=O)c(I)c-2oc2c(I)c([O-])c(I)cc12` [Rose Bengal sodium], the “IC50 of cell viability” value was > 46 µM. Next, `O=[N+]([O-])c1cc([As](=O)(O)O)ccc1O` [Roxarsone]: > 46 µM; `OC1=CC2=C([NH]C=C2CCCCN3CC\C(=C/C3)C4=CC=CC=C4)C=C1` [Roxindole hydrochloride]: > 46 µM.

For `CC[C@@H]1OC(=O)[C@H](C)[C@H](O[C@H]2C[C@](C)(OC)[C@H](O)[C@H](C)O2)[C@H](C)[C@H](O[C@@H]2O[C@@H](C)C[C@@H](N(C)C)[C@H]2O)[C@](C)(O)C[C@H](C)/C(=N/OCOCCOC)[C@H](C)[C@H](O)[C@]1(C)O` [Roxithromycin], the “IC50 of cell viability” value was > 46 µM. Next, `CC[C@H]1OC(=O)[C@H](C)[C@@H](OC2CC(C)(OC)C(O)C(C)O2)[C@H](C)[C@@H](OC2OC(C)CC(N(C)C)C2O)[C@](C)(O)C[C@@H](C)/C(=N\OCOCCOC)[C@H](C)[C@@H](O)[C@]1(C)O` (stereo partly specified) [Roxithromycin]: > 46 µM; `C[C@@H]1O[C@@H](OC[C@H]2O[C@@H](Oc3c(-c4ccc(O)c(O)c4)oc4cc(O)cc(O)c4c3=O)[C@H](O)[C@@H](O)[C@@H]2O)[C@H](O)[C@H](O)[C@H]1O` [Rutin]: > 46 µM; `C[C@H](N)C(=O)c1ccccc1` [S(-)-Cathinone hydrochloride]: > 46 µM. `CCN(CC)C(=O)N[C@@H]1C=C2c3cccc4[nH]cc(c34)C[C@H]2N(C)C1` [S(-)-LISURIDE]: the “IC50 of cell viability” value is > 46 µM.

Regarding `CCN1CCC[C@H]1CNC(=O)c1c(O)c(Cl)cc(Cl)c1OC` [S(-)-RACLOPRIDE], the “IC50 of cell viability” value is > 46 µM. Next, `CCc1cc(Cl)c(OC)c(C(=O)NC[C@H]2CCCN2CC)c1O` [S(-)Eticlopride hydrochloride]: > 46 µM; `CN[C@H](C)Cc1ccccc1` [S-(+)-Methamphetamine]: > 46 µM; `C=CCC1([C@@H](C)CCC)C(=O)NC(=O)NC1=O` [S-(-)-Secobarbital]: > 46 µM.

With `CCOC(=O)/C=C(C)/C=C/CC(C)CCCC(C)C` (stereo unspecified) [S-HYDROPRENE], the “IC50 of cell viability” value was > 46 µM. Then `CC(/C=C/C=C(\C)C(=O)O[C@@H]1O[C@H](CO[C@@H]2O[C@H](CO)[C@@H](O)[C@H](O)[C@H]2O)[C@@H](O)[C@H](O)[C@H]1O)=C\C=C\C=C(C)\C=C\C=C(/C)C(=O)O[C@@H]1O[C@H](CO[C@@H]2O[C@H](CO)[C@@H](O)[C@H](O)[C@H]2O)[C@@H](O)[C@H](O)[C@H]1O` [SAFFRON], with > 46 µM.

In the case of `CC(CCc1ccc2c(c1)OCO2)NN` (stereo unspecified) [SAFRAZINE HYDROCHLORIDE], the “IC50 of cell viability” value was > 46 µM. On to `CC(C)(C)NCC(O)c1ccc(O)c(CO)c1` (stereo unspecified) [SALBUTAMOL], for which the “IC50 of cell viability” value is > 46 µM. Then `OCc1ccccc1O` [SALICYL ALCOHOL], with > 46 µM; and `NC(=O)c1ccccc1O` [SALICYLAMIDE], with > 46 µM; and `O=C(Oc1ccccc1C(=O)O)c1ccccc1O` [SALSALATE], with > 46 µM. Next, `Cl.OC(=O)C/1=C/N(C2=CC=C(F)C=C2)C3=C(C=C(F)C(=C3)N4CCNCC4)C1=O` [SARAFLOXACIN HYDROCHLORIDE]: > 46 µM; `CNCC(=O)NC(CCCNC(=N)N)C(=O)NC(C(=O)NC(Cc1ccc(O)cc1)C(=O)NC(C(=O)NC(Cc1cnc[nH]1)C(=O)N1CCCC1C(=O)NC(C)C(=O)O)C(C)C)C(C)C` (stereo unspecified) [SARALASIN ACETATE]: > 46 µM. As for `COc1cccc(CCc2ccccc2OCC(CN(C)C)OC(=O)CCC(=O)O)c1` (stereo unspecified) [SARPOGRELATE HYDROCHLORIDE], the “IC50 of cell viability” value is > 46 µM. Next, `Cc1ccccc1/N=N/c1ccc(/N=N/c2c(O)ccc3ccccc23)c(C)c1` [SCARLET RED]: > 46 µM; `C=C1CC[C@H](O)C/C1=C/C=C1\CCC[C@]2(C)[C@@H]([C@H](C)CC[C@@H](O)C(C)(C)O)CC[C@@H]12` [SECALCIFEROL]: > 46 µM. Next, `Cc1ncc([N+](=O)[O-])n1CC(C)O` (stereo unspecified) [SECNIDAZOLE]: > 46 µM. Next, `O=C/1O[C@@]23CC(/C=C\C2=C1)N4CCCCC34` (stereo partly specified) [SECURININE]: > 46 µM; `COC1CC(O[C@H]2/C(C)=C/CC3CC(C[C@]4(CCC(C)C(C5CCCCC5)O4)O3)OC(=O)[C@H]3C=C(C)/C(=N/O)C4OC/C(=C\C=C\[C@@H]2C)[C@@]43O)OC(C)C1O` (stereo partly specified) [SELAMECTIN]: > 46 µM; `Oc1ccc([C@H]2CNCc3c2ccc(O)c3O)cc1O` [SELANDOPAM HYDROCHLORIDE HYDRATE (ZELANDOPAM)]: > 46 µM. With `C[Se]CC[C@H](N)C(=O)O` [SELENOMETHIONINE, L-], the “IC50 of cell viability” value is > 46 µM. Next, `C[Se]CCC(N)C(=O)O` (stereo unspecified) [SELENOMETHIONINE, SE-75]: > 46 µM; `Cc1cc(C)c(/C=C2\C(=O)Nc3ccccc32)[nH]1` [SEMAXANIBUM]: > 46 µM. Next, `CC1CCC(NC(=O)N(CCCl)N=O)CC1` (stereo unspecified) [SEMUSTINE]: > 46 µM; `CC1=C(C)C(=O)C(C(CCCCCC(=O)O)c2ccccc2)=C(C)C1=O` (stereo unspecified) [SERATRODAST]: > 46 µM. Next, `FCOC(C(F)(F)F)C(F)(F)F` [SEVOFLURANE]: > 46 µM; `CC(C)CC(N(C)C)C1(c2ccc(Cl)cc2)CCC1.Cl` (stereo unspecified) [SIBUTRAMINE HYDROCHLORIDE]: > 46 µM. Turning to `CCNc1nc(Cl)nc(NCC)n1` [SIMAZINE], the “IC50 of cell viability” value is > 46 µM.

For the compound `CC1=C(NNC(=O)C1)C2=CC=C(N\N=C(\C#N)C#N)C=C2` [SIMENDANUM], the “IC50 of cell viability” value was > 46 µM. Then `Nc1c[n+](N2CCOCC2)no1` [SIN-1 chloride], with > 46 µM; and `CSCC[C@H](NC(=O)[C@@H](Cc1ccc(O[S+](=O)([O-])O)cc1)NC(=O)[C@H](N)CC(=O)O)C(=O)NCC(=O)N[C@@H](Cc1c[nH]c2ccccc12)C(=O)N[C@H](CCSC)C(=O)N[C@H](CC(=O)O)C(=O)N[C@@H](Cc1ccccc1)C(N)=O` [SINCALIDE], with > 46 µM. Then `CC(C)(C)C(=O)Oc1ccc([S+](=O)([O-])Nc2ccccc2C(=O)NCC(=O)[O-])cc1.O.O.O.O.[Na+]` [SIVELESTAT SODIUM HYDRATE], with > 46 µM. Then `Cc1c[nH]c2ccccc12` [SKATOLUM], with > 46 µM; and `C=CCN1C[C@H](C)N([C@H](c2ccc(C(=O)N(CC)CC)cc2)c2cccc(OC)c2)C[C@H]1C` [SNC 80], with > 46 µM; and `CCCC(=O)[O-]` [SODIUM BUTYRATE], with > 46 µM.

As for `F[Si-2](F)(F)(F)(F)F` [SODIUM HEXAFLUOROSILICATE], the “IC50 of cell viability” value is > 46 µM.

As to `O=C(O)CCCc1ccccc1` [SODIUM PHENYLBUTYRATE], the “IC50 of cell viability” value was > 46 µM. Take `CCCCC(CC)CCC(CC(C)C)OS(=O)(=O)[O-]` (stereo unspecified) [SODIUM TETRADECYL SULFATE]: the “IC50 of cell viability” value is > 46 µM.

On to `O=P(O)(O)OP(=O)(O)OP(=O)(O)O.[NaH]` [SODIUM TRIPOLYPHOSPHATE], for which the “IC50 of cell viability” value was > 46 µM.

`O=C(O[C@H]1CN2CCC1CC2)N1CCc2ccccc2[C@@H]1c1ccccc1` [SOLIFENACIN SUCCINATE]: the “IC50 of cell viability” value was > 46 µM. Next, `CC(N)C(=O)NCC(=O)NC1CSSCC(C(=O)O)NC(=O)C(CO)NC(=O)C(C(C)O)NC(=O)C(Cc2ccccc2)NC(=O)C(C(C)O)NC(=O)C(CCCCN)NC(=O)C(Cc2c[nH]c3ccccc23)NC(=O)C(Cc2ccccc2)NC(=O)C(Cc2ccccc2)NC(=O)C(CC(N)=O)NC(=O)C(CCCCN)NC1=O` (stereo unspecified) [SOMATOSTATIN]: > 46 µM; `CCCCCCCCCCCCCCCC(=O)OC[C@H](O)[C@H]1OC[C@@H](O)[C@@H]1O` [SORBITAN MONOPALMITATE]: > 46 µM.

Turning to `CCCCCCCCCCCC(=O)OCC(O)C1OCC(O)C1O` (stereo unspecified) [SORBITANI LAURAS], the “IC50 of cell viability” value was > 46 µM. Then `OCC(O)C(O)C(O)C(O)CO` (stereo unspecified) [SORBITOL], with > 46 µM. Next, `CC(C)NCC(O)c1ccc(N[S+](C)(=O)[O-])cc1` (stereo unspecified) [SOTALOL]: > 46 µM. Next, `CC(=O)N[C@@H](CC(=O)O)C(=O)N[C@@H](CCC(=O)O)C(=O)O` [SPAGLUMIC ACID]: > 46 µM; `CC1CN(c2c(F)c(N)c3c(=O)c(C(=O)O)cn(C4CC4)c3c2F)CC(C)N1` (stereo unspecified) [SPARFLOXACIN]: > 46 µM; `O=C(CCCN1CCC2(CC1)C(=O)NCN2c1ccccc1)c1ccc(F)cc1` [SPIPERONE]: > 46 µM.

As to `O=C1NCN(c2ccccc2)C12CCN(CC1COc3ccccc3O1)CC2` (stereo unspecified) [SPIROXATRINE], the “IC50 of cell viability” value is > 46 µM.

With `CC(C)=CCC/C(C)=C/CC/C(C)=C/CC/C=C(\C)CC/C=C(\C)CCC=C(C)C` [SQUALENE], the “IC50 of cell viability” value was > 46 µM. For `CCCCCCCCCCCCCCCCCCO` [STEARLY ALCOHOL], the “IC50 of cell viability” value was > 46 µM.

`N#Cc1c(N(CC(=O)[O-])CC(=O)[O-])sc(C(=O)[O-])c1CC(=O)[O-].O.O.O.O.O.O.O.[Sr+2].[Sr+2]` [STRONTIUM RANELATE]: the “IC50 of cell viability” value is > 46 µM.

`ClCc1ccccc1.O=C1CC2OCC=C3CN4CCC56c7ccccc7N1C5[C@H]2[C@H]3C[C@H]46` (stereo partly specified) [STRYCHNINE SULFATE]: the “IC50 of cell viability” value was > 46 µM.
